Data: ChEMBL document CHEMBL4219054, “Induction of apoptosis by pyrazolo[3,4-d]pyridazine derivative in lung cancer cells via disruption of Bcl-2/Bax expression balance” (Bioorg Med Chem, 2018)

Key:
HepG2 = experiment: Antiproliferative activity against human HepG2 cells after 48 hrs by MTT assay; type: functional, cell-based
HCT-116 = experiment: Antiproliferative activity against human HCT116 cells after 48 hrs by MTT assay; type: functional, cell-based
A549 [1] = experiment: Antiproliferative activity against human A549 cells after 48 hrs by MTT assay; type: functional, cell-based
[2] = Antiproliferative activity against human HFB4 cells after 48 hrs by MTT assay; type: cell-based
WI-38 = experiment: Antiproliferative activity against human WI38 cells after 48 hrs by MTT assay; type: cell-based; conditions: WI-38, 48 h
A549 [3] = experiment: Cell cycle arrest in human A549 cells assessed as accumulation at sub G1 phase at 0.067 mM after 48 hrs by propidium iodide staining-based flow cytometric analysis (reference value: 0.77%); type: functional
A549 [4] = experiment: Cell cycle arrest in human A549 cells assessed as accumulation at G0/G1 phase at 0.067 mM after 48 hrs by propidium iodide staining-based flow cytometric analysis (reference value: 66.85%); type: functional
A549 [5] = experiment: Cell cycle arrest in human A549 cells assessed as accumulation at S phase at 0.067 mM after 48 hrs by propidium iodide staining-based flow cytometric analysis (reference value: 27.04%); type: functional
A549 [6] = experiment: Cell cycle arrest in human A549 cells assessed as accumulation at G2/M phase at 0.067 mM after 48 hrs by propidium iodide staining-based flow cytometric analysis (reference value: 5.34%); type: functional
A549 [7] = experiment: Induction of apoptosis in human A549 assessed as viable cells at 0.067 mM after 48 hrs by Annexin-V FITC/propidium iodide staining-based flow cytometric analysis (reference value: 97.42%); type: functional; conditions: A549, 48 h, read-out: Activity
A549 [8] = experiment: Induction of apoptosis in human A549 assessed as early apoptotic cells at 0.067 mM after 48 hrs by Annexin-V FITC/propidium iodide staining-based flow cytometric analysis (reference value: 0.36%); type: functional
A549 [9] = experiment: Induction of apoptosis in human A549 assessed as late apoptotic cells at 0.067 mM after 48 hrs by Annexin-V FITC/propidium iodide staining-based flow cytometric analysis (reference value: 0.21%); type: functional
A549 [10] = experiment: Induction of apoptosis in human A549 assessed as necrotic cells at 0.067 mM after 48 hrs by Annexin-V FITC/propidium iodide staining-based flow cytometric analysis (reference value: 0.2%); type: functional
A549 [11] = experiment: Induction of apoptosis in human A549 assessed as upregulation of caspase-3 mRNA expression level at 0.067 mM by RT-PCR analysis relative to control; type: functional
A549 [12] = experiment: Induction of apoptosis in human A549 assessed as upregulation of Bax mRNA expression level at 0.067 mM by RT-PCR analysis relative to control; type: functional
A549 [13] = experiment: Induction of apoptosis in human A549 assessed as upregulation of p53 mRNA expression level at 0.067 mM by RT-PCR analysis relative to control; type: functional
A549 [14] = experiment: Induction of apoptosis in human A549 assessed as inhibition of Bcl2 mRNA expression level at 0.067 mM by RT-PCR analysis relative to control; type: functional

- IC50 (HepG2; HepG2, 48 h): 115 µM
- IC50 (HCT-116; HCT-116, 48 h): 130 µM
- IC50 (A549 [1]; A549, 48 h): 67 µM
Structure (SMILES): O=c1oc2ccc3ccccc3c2cc1-c1n[nH]c(=O)c2nn(-c3ccccc3)cc12
- Activity (HepG2): Dose-dependent effect
- Activity (HCT-116): Dose-dependent effect
- Activity (A549 [1]): Dose-dependent effect
- IC50 [2]: 281 µM
- IC50 (WI-38): 219 µM
- Activity (A549 [3]): 11.42%
- Activity (A549 [4]): 56.88%
- Activity (A549 [5]): 16.59%
- Activity (A549 [6]): 15.11%
- viability at 67 µM (A549 [7]): 86.9%
- Activity (A549 [8]): 4.69%
- Activity (A549 [9]): 5.37%
- Activity (A549 [10]): 1.36%
- fold change (FC) (A549 [11]): 7.19
- fold change (FC) (A549 [12]): 7.28
- fold change (FC) (A549 [13]): 5.08
- fold change (FC) (A549 [14]): 0.22
